Experiment [1] deals with purified binding protein. Briefly: competition for binding of labelled human/bovine/porcine IGF-1 to purified binding protein. Conditions: competition with labelled human/bovine/porcine IGF-1. An excerpt: This apparent discrepancy is caused by the myoblasts producing a binding protein in addition to the receptor. This binding protein selectively binds those IGF-1 peptides that have a glutamic acid residue at position 3 from the N-terminal, thus preventing the peptide binding to the cell receptor. This interpretation is established by the following results [determined by the method of Martin and Baxter, J. Biol, Chem. 261: 8754-8760, (1986)] with purified binding proteins (see Table 2).

In experiment [2] the test system is L6 myoblasts. Briefly: incorporation of 3H-labelled leucine into total cell protein of L6 myoblasts (protein synthesis bioassay). The experiment is classed as cell-based. The settings on record: for Concentration (percent of that required to give a half-response with hIGF-1): hIGF-1 half-response 12 ng/ml = 100, lower = more potent. An excerpt:
Bioassays of purified synthetic peptides have been compared with pure human/bovine/porcine IGF-1. The assays involve the incorporation of 3H-labelled leucine into the total cell protein of L6 myoblasts as described by Francis et al. (Biochem. J. 233:207-213, 1986).

Where no end group is shown, it is not given here.

The text below walks through data of US5164370A, “Peptide analogues of insulin-like growth factor 1 (IGF-1) or factor 2 (IGF-2)” (Gropep Pty. Ltd., priority 1987, dated 1992).

Consider “Gly--Pro--Arg--Thr--Leu--Cys--: IGF-1 analogue: glutamic acid at position 3 substituted with arginine (GPRTLC; not fully specified (C-terminus); printed as Gly—Pro—Arg—Thr—Leu—Cys—; ends and bridges not checked; also: N-terminal part of IGF-1 analogue, rest of chain not shown)”, for which the “Potency for binding to the protein where hIGF-1 = 100%” value in experiment [1] was less than 0.1%. Further, the “Concentration (percent of that required to give a half-response with hIGF-1)” value in experiment [2] is given as 5%.
The matching figures for “Gly--Pro--Gln--Thr--Leu--Cys--: IGF-1 analogue: glutamic acid at position 3 substituted with glutamine (GPQTLC; not fully specified (C-terminus); printed as Gly—Pro—Gln—Thr—Leu—Cys—; ends and bridges not checked; also: N-terminal part of IGF-1 analogue, rest of chain not shown)”: 1.0% and 18%.
Turning to “Gly--Pro--Glu--Thr--Leu--Cys--: pure human/bovine/porcine insulin-like growth factor-1, full 70-residue sequence (b3) (GPETLC; not fully specified (C-terminus); ends and bridges not checked; also: N-terminal part of IGF-1, rest of chain not shown) [reference compound]”, the “Potency for binding to the protein where hIGF-1 = 100%” value in experiment [1] worked out at 100%. In addition, the “concentration required to give a half-response” value in experiment [2] (3H-leucine incorporation) is 12 ng/mL. Further, the “Concentration (percent of that required to give a half-response with hIGF-1)” value in experiment [2] came out at 100%.
Turning to “Gly--Pro--Gly--Arg--Leu--Cys--: IGF-1 analogue: glutamic acid 3 substituted with glycine and threonine 4 with arginine (GPGRLC; not fully specified (C-terminus); printed as Gly—Pro—Gly—Arg—Leu—Cys—; ends and bridges not checked; also: N-terminal part of IGF-1 analogue, rest of chain not shown)”, in experiment [1], the “Potency for binding to the protein where hIGF-1 = 100%” value is recorded as less than 0.1%. Also, the “Concentration (percent of that required to give a half-response with hIGF-1)” value in experiment [2] came out at 4%.
For “Gly--Pro--Gly--Gly--Leu--Cys--: IGF-1 analogue: glutamic acid 3 substituted with glycine and threonine 4 with glycine (GPGGLC; not fully specified (C-terminus); printed as Gly—Pro—Gly—Gly—Leu—Cys—; ends and bridges not checked; also: N-terminal part of IGF-1 analogue, rest of chain not shown)”, the “Potency for binding to the protein where hIGF-1 = 100%” value in experiment [1] came out at 0.1%. Moreover, the “Concentration (percent of that required to give a half-response with hIGF-1)” value in experiment [2] is recorded as 14%.
Take “Gly--Pro--Gly--Thr--Leu--Cys--: IGF-1 analogue: glutamic acid at position 3 substituted with glycine (GPGTLC; not fully specified (C-terminus); printed as Gly—Pro—Gly—Thr—Leu—Cys—; ends and bridges not checked; also: N-terminal part of IGF-1 analogue, rest of chain not shown)”: the “Potency for binding to the protein where hIGF-1 = 100%” value in experiment [1] is reported as 0.5%. For the same substance, the “Concentration (percent of that required to give a half-response with hIGF-1)” value in experiment [2] was 12%.
On to “Gly--Pro--Leu--Thr--Leu--Cys--: IGF-1 analogue: glutamic acid at position 3 substituted with leucine (GPLTLC; not fully specified (C-terminus); printed as Gly—Pro—Leu—Thr—Leu—Cys—; ends and bridges not checked; also: N-terminal part of IGF-1 analogue, rest of chain not shown)”, for which the “Potency for binding to the protein where hIGF-1 = 100%” value in experiment [1] is on record as 0.5%. For the same substance, the “Concentration (percent of that required to give a half-response with hIGF-1)” value in experiment [2] was 18%.
The matching figures for “Gly--Pro--Lys--Thr--Leu--Cys--: IGF-1 analogue: glutamic acid at position 3 substituted with lysine (GPKTLC; not fully specified (C-terminus); printed as Gly—Pro—Lys—Thr—Leu—Cys—; ends and bridges not checked; also: N-terminal part of IGF-1 analogue, rest of chain not shown)”: 0.1% and 11%.
“Gly--Thr--Leu--Cys--: IGF-1 analogue: Gly, Pro removed and glutamic acid substituted with glycine (GTLC; not fully specified (C-terminus); printed as Gly—Thr—Leu—Cys—; ends and bridges not checked; also: N-terminal part of IGF-1 analogue, rest of chain not shown)”: the “Potency for binding to the protein where hIGF-1 = 100%” value in experiment [1] is listed as 1.0%. Also, in experiment [2], the “Concentration (percent of that required to give a half-response with hIGF-1)” value is 16%.
